From PubChem BioAssay AID2627 (Broad Institute, 2010)

Molecular target: Alpha-synuclein (Homo sapiens) (UniProt P37840)
Assay: activators of alpha-synuclein protein translation, dose response, Western blot, H4 cells (AID 2627)
Details: alpha-synuclein protein level

- ECmax: 1000 nM
SMILES: c1ccc2c(Nc3nnc(-c4ccncc4)s3)cccc2c1
